One cell line from the supplement of paper PMC10307832 can be followed below.

Test in all cases: relative viability (nuclei count vs DMSO), 5 days (fraction); higher = more cells survive
Compound in one test: CC(C)C[C@@H](C(=O)N[C@H](C(=O)OC1CCCC1)c1ccccc1)[C@H](O)C(=O)NO [Tosedostat]
The gist of the method:
(§1)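 In 1536-well plates, lung cancer cell lines rested overnight at 37 °C before five library-drug doses (not always all listed), √10 apart, were pinned onto vehicle-anchored plates. Nuclei were counted with MetaXpress from 4× Hoechst images taken after 5 days without medium change. Viability compares treated-well with vehicle-well nuclei as a median over plates, and plates needed control CV below 25% plus at least one doubling to pass.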

Compound in test [1]: CC1=NN=C(O1)C2=NN=C(C=C2)N3CCC(CC3)OC4=C(C=CC(=C4)F)Cl
In short, it runs like this: as §1

Compound in the test “Tosedostat + Foretinib”: CC(C)C[C@@H](C(=O)N[C@H](C(=O)OC1CCCC1)c1ccccc1)[C@H](O)C(=O)NO [Tosedostat] + COc1cc2c(Oc3ccc(NC(=O)C4(C(=O)Nc5ccc(F)cc5)CC4)cc3F)ccnc2cc1OCCCN1CCOCC1 [Foretinib] (partner 0.25 µM)
In short, it runs like this: (§2)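 Lung cancer cell lines, seeded in 1536-well plates, were treated the following day by pin tool with a single drug or with five library-drug doses (not always all listed) in √10 steps on top of a fixed anchor-drug dose. Cells were fixed and nuclei stained in one step after 5 days, and nuclei were counted. Relative viability is the nuclei count for treated wells divided by that for vehicle wells, reported as medians of duplicate plates.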

Compound in test [2]: CC1=NN=C(O1)C2=NN=C(C=C2)N3CCC(CC3)OC4=C(C=CC(=C4)F)Cl + CC(=O)c1c(C)c2cnc(Nc3ccc(N4CCNCC4)cn3)nc2n(C2CCCC2)c1=O [Palbociclib] (partner 0.5 µM)
In short, it runs like this: as §2

As to UMC-11, the relative viability stood at 1.1 with Tosedostat (0.02 µM); 0.994 in the test with Tosedostat (0.06325 µM); 1.03 with Tosedostat (0.2 µM); 1.04 with Tosedostat (0.6325 µM); 1.05 with Tosedostat (2 µM); 0.634 in test [1] (0.253 µM). In addition, the relative viability in test [1] (0.8 µM) came to 0.641; in test [1] (2.53 µM) it was 0.76; in test [1] (8 µM), 0.594; in the test with Tosedostat + Foretinib (first compound 0.02 µM), 1.22; in the test with Tosedostat + Foretinib (first compound 0.06325 µM), 0.969; in the test with Tosedostat + Foretinib (first compound 0.2 µM), 1.02. Further, the relative viability came to 1.09 with Tosedostat + Foretinib (first compound 0.6325 µM); 1.03 with Tosedostat + Foretinib (first compound 2 µM); 0.303 in test [2] (first compound 0.253 µM); 0.271 in test [2] (first compound 0.8 µM); 0.3 in test [2] (first compound 2.53 µM); 0.39 in test [2] (first compound 8 µM).
